Measured values published in patent publication US20070197603A1 (published 2007).

Molecule `Cl.Clc1cccc(Cl)c1C1CCN(Cc2c(-c3ccccc3)[nH]c3ccccc23)CC1` has a melting point of 169 to 171 °C.
Work on `Cl.Clc1cccc(Cl)c1C1CCN(Cc2cc3ccccc3[nH]2)CC1` yielded a melting point of 238 to 240 °C.
In the case of `Cc1c(CN2CCC(c3c(Cl)cccc3Cl)CC2)[nH]c2ccccc12`, the melting point was 139 to 141 °C.
Work on `Cc1cccc(C)c1C1CCN(Cc2cc3ccccc3[nH]2)CC1` yielded a melting point of 128 to 130 °C.
For `Clc1cccc(Cl)c1C1CCN(Cc2[nH]c3ccccc3c2-c2ccccc2)CC1`, the melting point was 162 to 164 °C.
In the case of `Cl.OCCn1c(CN2CCC(c3c(Cl)cccc3Cl)CC2)cc2ccccc21`, the melting point was 263 to 265 °C.
`Cl.Clc1cccc(Cl)c1C1CCN(Cc2c[nH]c3ccccc23)CC1` gave a melting point of 189 to 190 °C.
`Cc1[nH]c2ccccc2c1CN1CCC(c2c(Cl)cccc2Cl)CC1` gave a melting point of 168 to 170 °C.
`Cl.Clc1cccc(Cl)c1C1CCN(Cc2c(-c3ccccc3)n(Cc3ccccc3)c3ccccc23)CC1` showed a melting point of 209 to 210 °C.
In the case of `CCCn1c(-c2ccccc2)c(CN2CCC(c3c(Cl)cccc3Cl)CC2)c2ccccc21.Cl`, the melting point was 150 to 152 °C.
With `Cl.Cn1c(-c2ccccc2)c(CN2CCC(c3c(Cl)cccc3Cl)CC2)c2ccccc21` the melting point was 179 to 184 °C (dec.).
In the case of `Cl.OCCn1c(-c2ccccc2)c(CN2CCC(c3c(Cl)cccc3Cl)CC2)c2ccccc21`, the melting point was 205 to 206 °C.
